The target in assay [1] is Adenylate kinase 2, mitochondrial (Homo sapiens, UniProt P54819).
The target of assay [2] is T1, Delta(24)-sterol reductase (Homo sapiens, UniProt Q15392).
T1 sequence (Q15392 whole entry): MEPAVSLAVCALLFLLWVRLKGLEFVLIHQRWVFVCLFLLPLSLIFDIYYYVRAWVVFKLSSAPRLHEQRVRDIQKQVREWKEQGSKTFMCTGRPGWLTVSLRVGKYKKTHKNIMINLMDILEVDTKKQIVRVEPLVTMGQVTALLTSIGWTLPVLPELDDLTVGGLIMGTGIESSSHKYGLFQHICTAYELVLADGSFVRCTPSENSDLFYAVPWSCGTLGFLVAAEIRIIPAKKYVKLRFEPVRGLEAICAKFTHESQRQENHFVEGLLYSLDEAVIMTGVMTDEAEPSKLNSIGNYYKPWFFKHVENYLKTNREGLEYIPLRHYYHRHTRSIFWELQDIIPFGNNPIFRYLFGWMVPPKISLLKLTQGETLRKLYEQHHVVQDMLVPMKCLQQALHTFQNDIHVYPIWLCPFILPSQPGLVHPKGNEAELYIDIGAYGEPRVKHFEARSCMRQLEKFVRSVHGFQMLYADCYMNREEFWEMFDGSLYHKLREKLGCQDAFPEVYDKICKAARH

Another assay deals with Midasin (Homo sapiens, UniProt Q9NU22).
Assay [3] deals with T2, Serine/threonine-protein kinase PLK4 (Homo sapiens, UniProt O00444).
T2 sequence (O00444 whole entry): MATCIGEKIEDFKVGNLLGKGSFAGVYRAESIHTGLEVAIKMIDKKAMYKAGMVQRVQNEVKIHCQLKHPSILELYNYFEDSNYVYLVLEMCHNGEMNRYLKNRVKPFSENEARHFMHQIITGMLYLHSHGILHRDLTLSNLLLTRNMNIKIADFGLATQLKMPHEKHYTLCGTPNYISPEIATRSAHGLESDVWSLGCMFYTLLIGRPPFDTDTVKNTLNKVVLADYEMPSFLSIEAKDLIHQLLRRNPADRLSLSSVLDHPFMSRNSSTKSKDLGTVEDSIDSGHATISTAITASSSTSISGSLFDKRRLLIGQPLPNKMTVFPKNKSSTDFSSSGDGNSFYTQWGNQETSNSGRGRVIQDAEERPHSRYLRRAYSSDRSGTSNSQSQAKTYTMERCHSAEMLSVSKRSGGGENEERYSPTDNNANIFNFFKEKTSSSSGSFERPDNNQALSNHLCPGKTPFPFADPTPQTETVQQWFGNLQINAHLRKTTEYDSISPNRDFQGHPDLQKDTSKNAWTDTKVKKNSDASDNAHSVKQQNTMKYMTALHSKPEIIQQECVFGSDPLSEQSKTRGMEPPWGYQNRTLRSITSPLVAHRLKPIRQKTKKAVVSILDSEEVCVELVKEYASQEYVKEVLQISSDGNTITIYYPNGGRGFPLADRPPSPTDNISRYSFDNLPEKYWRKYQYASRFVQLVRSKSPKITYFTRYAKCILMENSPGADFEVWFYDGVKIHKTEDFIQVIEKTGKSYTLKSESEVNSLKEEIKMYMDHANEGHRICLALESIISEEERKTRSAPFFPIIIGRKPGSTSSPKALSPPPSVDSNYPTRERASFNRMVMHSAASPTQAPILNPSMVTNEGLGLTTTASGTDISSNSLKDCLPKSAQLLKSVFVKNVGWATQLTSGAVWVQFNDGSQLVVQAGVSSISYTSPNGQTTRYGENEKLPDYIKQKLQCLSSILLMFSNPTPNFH

Assay [4] addresses T3, Glycogen phosphorylase, liver form (Homo sapiens, UniProt P06737).
T3 sequence (P06737 whole entry): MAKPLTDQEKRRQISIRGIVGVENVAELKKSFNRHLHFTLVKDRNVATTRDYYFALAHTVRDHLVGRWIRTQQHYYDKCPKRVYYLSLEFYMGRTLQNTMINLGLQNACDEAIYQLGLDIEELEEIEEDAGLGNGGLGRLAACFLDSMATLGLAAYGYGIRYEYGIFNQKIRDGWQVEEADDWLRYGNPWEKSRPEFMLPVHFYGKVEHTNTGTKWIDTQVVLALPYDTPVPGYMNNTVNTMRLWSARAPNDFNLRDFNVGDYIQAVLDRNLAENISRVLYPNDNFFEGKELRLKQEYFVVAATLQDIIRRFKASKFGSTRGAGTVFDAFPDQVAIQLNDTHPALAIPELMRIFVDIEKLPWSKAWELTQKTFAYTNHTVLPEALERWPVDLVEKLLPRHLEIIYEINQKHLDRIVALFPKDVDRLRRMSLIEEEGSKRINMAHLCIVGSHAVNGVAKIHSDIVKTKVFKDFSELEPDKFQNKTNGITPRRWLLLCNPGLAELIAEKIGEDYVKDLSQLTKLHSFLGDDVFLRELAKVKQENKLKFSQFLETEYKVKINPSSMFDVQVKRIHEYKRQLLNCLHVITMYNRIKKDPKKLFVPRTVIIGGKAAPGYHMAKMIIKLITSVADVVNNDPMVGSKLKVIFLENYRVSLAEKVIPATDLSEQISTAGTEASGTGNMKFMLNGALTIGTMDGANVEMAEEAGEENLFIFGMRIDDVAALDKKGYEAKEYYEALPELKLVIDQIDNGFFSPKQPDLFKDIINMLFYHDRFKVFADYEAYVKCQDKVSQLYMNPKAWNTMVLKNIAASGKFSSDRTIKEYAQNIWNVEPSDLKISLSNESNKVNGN
It counts as subcellular, K-562, COLO 205, SK-N-BE(2) and MV-4-11, Cell lysate. The conditions noted are these: read-out: Kd apparent.

The target in a further assay is T4, Scaffold protein ILK (Homo sapiens, UniProt Q13418).
T4 sequence (Q13418 whole entry): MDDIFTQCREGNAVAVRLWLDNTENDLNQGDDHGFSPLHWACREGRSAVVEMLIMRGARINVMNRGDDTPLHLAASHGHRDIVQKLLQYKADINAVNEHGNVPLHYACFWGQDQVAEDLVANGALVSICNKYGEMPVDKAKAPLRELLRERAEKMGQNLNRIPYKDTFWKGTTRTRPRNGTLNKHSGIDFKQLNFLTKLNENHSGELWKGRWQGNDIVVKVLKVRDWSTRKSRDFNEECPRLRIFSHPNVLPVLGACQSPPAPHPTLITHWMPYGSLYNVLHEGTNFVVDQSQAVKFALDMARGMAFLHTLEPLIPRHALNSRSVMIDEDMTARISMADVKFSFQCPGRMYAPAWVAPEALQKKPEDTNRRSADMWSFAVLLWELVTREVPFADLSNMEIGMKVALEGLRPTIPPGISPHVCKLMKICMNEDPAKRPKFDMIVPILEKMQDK

The structures appear in SMILES notation. Activity calls are given as the source filed them.
Further: in the data inactive means no Kd found up to 30 µM.

As to `CCN(CCCOc1ccc2c(Nc3cc(CC(=O)Nc4cccc(F)c4)n[nH]3)ncnc2c1)CCOP(=O)(O)O` [BARASERTIB], the Kd (in assay [1]; in assay [2]; on Midasin; in assay [3]; in assay [4]) was > 30 µM (inactive) in each case.

On to `COc1cc2c(N3CCN(C(=O)Nc4ccc(OC(C)C)cc4)CC3)ncnc2cc1OCCCN1CCCCC1` [TANDUTINIB], for which the Kd (in assay [1]; in assay [2]; on Midasin; on Scaffold protein ILK; in assay [4]) was > 30 µM (inactive) each time.

For the compound `COc1cc2c(Oc3ccc4[nH]c(C)cc4c3F)ncnc2cc1OCCCN1CCCC1` [CEDIRANIB], the Kd (in assay [1]; in assay [2]; on Midasin; at Scaffold protein ILK; in assay [4]) was > 30 µM (inactive) in each case.

Take `CN1CCN(c2nc(C3=C(c4c[nH]c5ccccc45)C(=O)NC3=O)c3ccccc3n2)CC1` [SOTRASTAURIN]: the Kd (in assay [1]; in assay [2]; at Midasin; in assay [3]; in assay [4]) was > 30 µM (inactive) in each case.

Take `CCN1CCN(Cc2ccc(Nc3ncc(F)c(-c4cc(F)c5nc(C)n(C(C)C)c5c4)n3)nc2)CC1` [ABEMACICLIB]: the Kd (in assay [1]; in assay [2]; on Midasin; in assay [3]; in assay [4]) was > 30 µM (inactive) in each case.

Turning to `Cn1cnc2c(F)c(Nc3ccc(Br)cc3Cl)c(C(=O)NOCCO)cc21` [SELUMETINIB], the Kd (in assay [1]; in assay [2]; on Midasin; at Scaffold protein ILK; in assay [4]) was > 30 µM (inactive) throughout.

Turning to `Cn1cc(-c2[nH]c3cc(NC(=O)[C@H](N)C4CCCCC4)cc4c3c2C=NNC4=O)cn1`, the Kd (in assay [1]; in assay [2]; at Midasin; on Scaffold protein ILK; in assay [4]) was > 30 µM (inactive) throughout.

With `CN(C)C/C=C/C(=O)Nc1cc2c(Nc3ccc(F)c(Cl)c3)ncnc2cc1O[C@H]1CCOC1` [AFATINIB], the Kd (in assay [1]; in assay [2]; at Midasin; on Scaffold protein ILK; in assay [4]) was > 30 µM (inactive) in each case.

In the case of `CCOc1ccn(-c2ccc(F)cc2)c(=O)c1C(=O)Nc1ccc(Oc2ccnc(N)c2Cl)c(F)c1` [BMS-777607], the Kd in assay [1] was > 30 µM (inactive); in assay [2] it was > 30 µM (inactive); on Midasin, > 30 µM (inactive); in assay [3], 0.301 µM; in assay [4], > 30 µM (inactive).

As to `CN(c1ncccc1CNc1nc(Nc2ccc3c(c2)CC(=O)N3)ncc1C(F)(F)F)S(C)(=O)=O` [PF-00562271], the Kd (in assay [1]; in assay [2]; at Midasin; at Scaffold protein ILK; in assay [4]) was > 30 µM (inactive) throughout.

`CC[C@@](C)(Nc1ccnc(-c2c[nH]c3ncccc23)n1)C(=O)NCC(F)(F)F` [DECERNOTINIB]: the Kd (in assay [1]; in assay [2]; at Midasin; at Scaffold protein ILK; in assay [4]) was > 30 µM (inactive) throughout.

With `CC1(C)CNc2cc(NC(=O)c3cccnc3NCc3ccncc3)ccc21` [MOTESANIB], the Kd (in assay [1]; in assay [2]; on Midasin; on Scaffold protein ILK; in assay [4]) was > 30 µM (inactive) throughout.

As for `COc1cc(F)c(F)c(Nc2ccc(I)cc2F)c1NS(=O)(=O)C1(C[C@H](O)CO)CC1` [REFAMETINIB], the Kd (in assay [1]; at Midasin; in assay [3]; in assay [4]) was > 30 µM (inactive) each time.

In the case of `C[C@@]1(C(=O)Nc2ccc(F)nc2)CCCN1c1nc(Nc2cc(C3CC3)n[nH]2)c2cccn2n1` [BMS-754807], the Kd (in assay [1]; in assay [2]; at Midasin; on Scaffold protein ILK; in assay [4]) was > 30 µM (inactive) each time.

In the case of `O=S(=O)(c1cccc2cnccc12)N1CCCNCC1` [FASUDIL], the Kd (in assay [1]; in assay [2]; on Midasin; at Scaffold protein ILK; in assay [4]) was > 30 µM (inactive) each time.

With `N#CCNC(=O)c1ccc(-c2ccnc(Nc3ccc(N4CCOCC4)cc3)n2)cc1` [MOMELOTINIB], the Kd (in assay [1]; in assay [2]; on Midasin; at Scaffold protein ILK; in assay [4]) was > 30 µM (inactive) in each case.

As for `C[C@]1(O)C[C@@H](c2nc(-c3ccc4ccc(-c5ccccc5)nc4c3)c3c(N)nccn32)C1` [LINSITINIB], the Kd (in assay [1]; in assay [2]; at Midasin; in assay [4]) was > 30 µM (inactive) each time.
